Test results published in patent publication US4200628A, “Novel aminoglycoside derivatives” (Shionogi & Co., Ltd., priority 1977, dated 1980).
Converted amounts (≈) assume the structure as drawn. Like-named read-outs stand apart in the source and are kept apart here.

Key:
Assay in all cases: MIC, antimicrobial activity
[1] = test system: Serratia marcescens ATCC 13880; settings: for MIC: Serratia marcescens
[2] = test system: Pseudomonas aeruginosa Ps-24; settings: for MIC: Pseudomonas aeruginosa; for Minimum Inhibitory Concentration (MIC): Pseudomonas aeruginosa Ps-24
[3] = test system: Escherichia coli NIHJ JC-2; settings: for MIC: Escherichia coli; for Minimum Inhibitory Concentration (MIC): Escherichia coli NIHJ JC-2
[4] = test system: Enterobacter cloacae TB-718; type: cell-based; settings: for MIC: Enterobacter cloacae, TB718, Enterobacter cloacae TB-718, read-out: Minimum Inhibitory Concentration (MIC); for Minimum Inhibitory Concentration (MIC): Enterobacter cloacae TB-718
[5] = test system: Staphylococcus aureus FDAJC; settings: for MIC: Staphylococcus aureus, read-out: Minimum Inhibitory Concentration (MIC), Staphylococcus aureus FDAJC; for Minimum Inhibitory Concentration (MIC): Staphylococcus aureus FDAJC
Proteus rettgeri Ret 40 = settings: for MIC: Providencia rettgeri, RET40, read-out: Minimum Inhibitory Concentration (MIC), Proteus rettgeri Ret 40; for Minimum Inhibitory Concentration (MIC): Proteus rettgeri Ret 40
[6] = test system: Escherichia coli W-677/JR-762; settings: for MIC: Escherichia coli, W677/JR762, read-out: Minimum Inhibitory Concentration (MIC), Escherichia coli W-677/JR-762, tobramycin resistant strain; for Minimum Inhibitory Concentration (MIC): Escherichia coli W-677/JR-762, tobramycin resistant strain
Proteus inconstans In-27 = type: cell-based; settings: for MIC: Providencia alcalifaciens, IN27, read-out: Minimum Inhibitory Concentration (MIC), Proteus inconstans In-27, tobramycin resistant strain; for Minimum Inhibitory Concentration (MIC): Proteus inconstans In-27, tobramycin resistant strain
Proteus mirabilis TB-617 = type: cell-based; settings: for MIC: Proteus mirabilis, TB617, Proteus mirabilis TB-617, read-out: Minimum Inhibitory Concentration (MIC); for Minimum Inhibitory Concentration (MIC): Proteus mirabilis TB-617
[7] = test system: Klebsiella pneumoniae Kl-38; settings: for MIC: Klebsiella pneumoniae; for Minimum Inhibitory Concentration (MIC): Klebsiella pneumoniae Kl-38
[8] = test system: Pseudomonas aeruginosa PP-6; settings: for MIC: Pseudomonas aeruginosa; for Minimum Inhibitory Concentration (MIC): Pseudomonas aeruginosa PP-6, tobramycin resistant strain
[9] = ATCC13880, read-out: Minimum Inhibitory Concentration (MIC)
[10] = PS24, read-out: Minimum Inhibitory Concentration (MIC), Pseudomonas aeruginosa Ps-24
[11] = NIHJJC2, read-out: Minimum Inhibitory Concentration (MIC), Escherichia coli NIHJ JC-2
[12] = KL38, read-out: Minimum Inhibitory Concentration (MIC), Klebsiella pneumoniae Kl-38
[13] = PP6, read-out: Minimum Inhibitory Concentration (MIC), Pseudomonas aeruginosa PP-6, tobramycin resistant strain
[14] = PP6, read-out: Minimum Inhibitory Concentration (MIC)
[15] = ATCC13880, read-out: Minimum Inhibitory Concentration (MIC), Serratia marcescens ATCC 13880
[16] = NIHJJC2, read-out: Minimum Inhibitory Concentration (MIC)
[17] = KL38, read-out: Minimum Inhibitory Concentration (MIC)

| SMILES | MIC [1, 9] | MIC [2, 10] | MIC [3, 11] | MIC [4] | MIC [5] | MIC (Proteus rettgeri Ret 40) | MIC [6] | MIC (Proteus inconstans In-27) | MIC (Proteus mirabilis TB-617) | MIC [7, 12] | MIC [8, 13] | MIC [1, 15] | Minimum Inhibitory Concentration (MIC) [2] | Minimum Inhibitory Concentration (MIC) [3] | Minimum Inhibitory Concentration (MIC) [4] | Minimum Inhibitory Concentration (MIC) [5] | Minimum Inhibitory Concentration (MIC) (Proteus rettgeri Ret 40) | Minimum Inhibitory Concentration (MIC) [6] | Minimum Inhibitory Concentration (MIC) (Proteus mirabilis TB-617) | Minimum Inhibitory Concentration (MIC) [7] | other results |
| --- | --- | --- | --- | --- | --- | --- | --- | --- | --- | --- | --- | --- | --- | --- | --- | --- | --- | --- | --- | --- | --- |
| NC[C@H]1O[C@H](O[C@H]2[C@H](O)[C@@H](O[C@H]3O[C@H](CO)[C@@H](O)[C@H](N)[C@H]3O)[C@H](NC(=O)C(O)C3CCN3)C[C@@H]2N)[C@H](N)C[C@@H]1O (stereo partly shown) [(2), 1-N-[2-hydroxy-2-(azetidin-2-yl)acetyl]tobramycin] | 50 µg/mL (≈ 86.1 µM) | 1.6 µg/mL (≈ 2.76 µM) | 6.2 µg/mL (≈ 10.7 µM) | 3.1 µg/mL (≈ 5.34 µM) | 0.1 µg/mL (≈ 0.172 µM) | 0.8 µg/mL (≈ 1.38 µM) | 6.2 µg/mL (≈ 10.7 µM) | > 100 µg/mL | 3.1 µg/mL (≈ 5.34 µM) | 1.6 µg/mL (≈ 2.76 µM) | 12.5 µg/mL (≈ 21.5 µM) |  |  |  |  |  |  |  |  |  |  |
| NC[C@H]1O[C@H](O[C@H]2[C@H](O)[C@@H](O[C@H]3O[C@H](CO)[C@@H](O)[C@H](N)[C@H]3O)[C@H](NC(=O)C(O)C3CCCNC3)C[C@@H]2N)[C@H](N)C[C@@H]1O (stereo partly shown) [(4), 1-N-[2-hydroxy-2-(piperidin-3-yl)acetyl]tobramycin] | 25 µg/mL (≈ 41.1 µM) | 12.5 µg/mL (≈ 20.5 µM) | 1.6 µg/mL (≈ 2.63 µM) | 1.6 µg/mL (≈ 2.63 µM) | 0.1 µg/mL (≈ 0.164 µM) | 1.6 µg/mL (≈ 2.63 µM) | > 100 µg/mL | > 100 µg/mL | 3.1 µg/mL (≈ 5.09 µM) | 1.6 µg/mL (≈ 2.63 µM) | 25 µg/mL (≈ 41.1 µM) |  |  |  |  |  |  |  |  |  |  |
| NC[C@H]1O[C@H](O[C@H]2[C@H](O)[C@@H](O[C@H]3O[C@H](CO)[C@@H](O)[C@H](N)[C@H]3O)[C@H](NC(=O)C(O)C3CNC3)C[C@@H]2N)[C@H](N)C[C@@H]1O (stereo partly shown) [(3), 1-N-[2-hydroxy-2-(azetidin-3-yl)acetyl]tobramycin] | 6.2 µg/mL (≈ 10.7 µM) | 0.4 µg/mL (≈ 0.689 µM) | 0.4 µg/mL (≈ 0.689 µM) | 0.4 µg/mL (≈ 0.689 µM) | 0.1 µg/mL (≈ 0.172 µM) | 0.4 µg/mL (≈ 0.689 µM) | 1.6 µg/mL (≈ 2.76 µM) | 50 µg/mL (≈ 86.1 µM) | 0.8 µg/mL (≈ 1.38 µM) | 0.4 µg/mL (≈ 0.689 µM) |  |  |  |  |  |  |  |  |  |  | MIC [8, 14]: 1.6 µg/mL (≈ 2.76 µM) |
| NC[C@H]1O[C@H](O[C@H]2[C@H](O)[C@@H](O[C@H]3O[C@H](CO)[C@@H](O)[C@H](N)[C@H]3O)[C@H](N)C[C@@H]2N)[C@H](N)C[C@@H]1O [TOB, tobramycin, reference compound] |  | 0.39 µg/mL (≈ 0.834 µM) |  |  | 0.05 µg/mL (≈ 0.107 µM) | 0.39 µg/mL (≈ 0.834 µM) |  |  |  |  | 50 µg/mL (≈ 107 µM) | 3.13 µg/mL (≈ 6.69 µM) |  |  |  |  |  |  |  |  | MIC [3, 16]: 0.78 µg/mL (≈ 1.67 µM); MIC [7, 17]: 3.13 µg/mL (≈ 6.69 µM) |
| NC[C@H]1O[C@H](O[C@H]2[C@H](O)[C@@H](O[C@H]3O[C@H](CO)[C@@H](O)[C@H](N)[C@H]3O)[C@H](NC(=O)C(O)C3CNCCN3)C[C@@H]2N)[C@H](N)C[C@@H]1O (single isomer, unassigned) [(9), 1-N-[2-hydroxy-2-(piperazin-2-yl)acetyl]tobramycin] |  |  |  |  |  |  |  |  |  |  |  | 100 µg/mL (≈ 164 µM) | 3.1 µg/mL | 25.0 µg/mL | 12.5 µg/mL | 0.1 µg/mL | 3.1 µg/mL | 25.0 µg/mL | 6.2 µg/mL | 6.2 µg/mL | Minimum Inhibitory Concentration (MIC) (Proteus inconstans In-27): > 100.0 µg/mL; Minimum Inhibitory Concentration (MIC) [8]: 25.0 µg/mL |
| NC[C@H]1O[C@H](O[C@H]2[C@H](O)[C@@H](O[C@H]3O[C@H](CO)[C@@H](O)[C@H](N)[C@H]3O)[C@H](NC(=O)C(O)C3CNCCN3)C[C@@H]2N)[C@H](N)C[C@@H]1O (single isomer, unassigned) [(8), 1-N-[2-hydroxy-2-(piperazin-2-yl)acetyl]tobramycin] | 25 µg/mL (≈ 41 µM) |  |  |  | 0.1 µg/mL (≈ 0.164 µM) |  |  | 100 µg/mL (≈ 164 µM) |  |  | 12.5 µg/mL (≈ 20.5 µM) |  | 0.8 µg/mL | 1.6 µg/mL | 0.8 µg/mL |  | 0.8 µg/mL | 3.1 µg/mL | 1.6 µg/mL | 0.8 µg/mL |  |
| NC[C@H]1O[C@H](O[C@H]2[C@H](O)[C@@H](O[C@H]3O[C@H](CO)[C@@H](O)[C@H](N)[C@H]3O)[C@H](NC(=O)C(O)C3CCCN3)C[C@@H]2N)[C@H](N)C[C@@H]1O (stereo partly shown) [(6), 1-N-[2-hydroxy-2-(pyrrolidin-2-yl)acetyl]tobramycin] | 25 µg/mL (≈ 42 µM) |  |  |  |  |  |  |  |  |  |  |  | 1.6 µg/mL | 0.8 µg/mL | 0.8 µg/mL | 0.1 µg/mL | 0.2 µg/mL | 3.1 µg/mL | 0.8 µg/mL | 0.8 µg/mL | Minimum Inhibitory Concentration (MIC) (Proteus inconstans In-27): > 100.0 µg/mL; MIC [8, 14]: 6.2 µg/mL (≈ 10.4 µM) |
| NC[C@H]1O[C@H](O[C@H]2[C@H](O)[C@@H](O[C@H]3O[C@H](CO)[C@@H](O)[C@H](N)[C@H]3O)[C@H](NC(=O)C(O)C3CCCN3)C[C@@H]2N)[C@H](N)C[C@@H]1O (stereo partly shown) [(5), 1-N-[2-hydroxy-2-(pyrrolidin-2-yl)acetyl]tobramycin] |  |  |  |  |  |  |  | > 100 µg/mL |  |  | 25 µg/mL (≈ 42 µM) | 100 µg/mL (≈ 168 µM) | 6.2 µg/mL |  | 6.2 µg/mL | 0.1 µg/mL | 3.1 µg/mL | 25.0 µg/mL | 6.2 µg/mL | 6.2 µg/mL | MIC [3, 16]: 12.5 µg/mL (≈ 21 µM) |
| NC[C@H]1O[C@H](O[C@H]2[C@H](O)[C@@H](O[C@H]3O[C@H](CO)[C@@H](O)[C@H](N)[C@H]3O)[C@H](NC(=O)C(O)C3CCNC3)C[C@@H]2N)[C@H](N)C[C@@H]1O (stereo partly shown) [(1), 1-N-[2-hydroxy-2-(pyrrolidin-3-yl)acetyl]tobramycin] |  | 1.6 µg/mL (≈ 2.69 µM) | 1.6 µg/mL (≈ 2.69 µM) | 1.6 µg/mL (≈ 2.69 µM) | 0.1 µg/mL (≈ 0.168 µM) | 0.8 µg/mL (≈ 1.35 µM) | 6.2 µg/mL (≈ 10.4 µM) | 100 µg/mL (≈ 168 µM) | 3.1 µg/mL (≈ 5.21 µM) | 0.8 µg/mL (≈ 1.35 µM) |  | 12.5 µg/mL (≈ 21 µM) |  |  |  |  |  |  |  |  | MIC [8, 14]: 3.1 µg/mL (≈ 5.21 µM) |
| NC[C@H]1O[C@H](O[C@H]2[C@H](O)[C@@H](O[C@H]3O[C@H](CO)[C@@H](O)[C@H](N)[C@H]3O)[C@H](NC(=O)C(O)C3CCCN3)C[C@@H]2N)[C@H](N)C[C@@H]1O (stereo partly shown) [(7), 1-N-[2-hydroxy-2-(pyrrolidin-2-yl)acetyl]tobramycin] |  |  |  |  |  |  |  |  |  |  |  |  |  | 50.0 µg/mL | 25.0 µg/mL | 0.4 µg/mL | 6.2 µg/mL | 100.0 µg/mL | 12.5 µg/mL |  | Minimum Inhibitory Concentration (MIC) ([1]; Serratia marcescens ATCC 13880): > 100.0 µg/mL; MIC ([2]; PS24, read-out: Minimum Inhibitory Concentration (MIC)): 12.5 µg/mL (≈ 21 µM); Minimum Inhibitory Concentration (MIC) (Proteus inconstans In-27): > 100.0 µg/mL; MIC [7, 17]: 12.5 µg/mL (≈ 21 µM); Minimum Inhibitory Concentration (MIC) [8]: 50.0 µg/mL |
